The source of these data is US8063012B2, “Neuroprotective peptide inhibitors of AP-1 signaling and uses therefor” (Phylogica Limited, priority 2006, dated 2011).

Non-standard residues stand in square brackets, D forms with d. Residues, ends and D or L forms follow the SMILES beside them. No end group written: not given here.

Data set [1] has as its system primary cortical neuronal cultures. Briefly: Glutamate excitotoxicity in primary cortical neuronal cultures, neuronal viability by MTS assay. The data set is classed as cell-based, rat. The settings on record: for neuroprotection compared with JNKI-1D-TAT: 1 μM concentration. How it is done: Neurons were resuspended in Neurobasal (NB; Invitrogen) containing 2% B27 supplement (B27; Invitrogen). Before seeding, culture vessels comprising either a 96-well plastic plate or 24-well plastic plate with 13 mm glass coverslips (ProSciTech, Australia), were coated with poly-D-lysine (50 μg/mL; 70-150K; Sigma) and incubated overnight at room temperature. […] Neurons were plated to obtain approximately 10,000 viable neurons for each well of a 96-well plate, or 200,000 viable neurons per well of a 24-well plate, on day in vitro (DIV) […]. […] On DIV 4, one third of the culture medium was removed and replaced with fresh NB/2% B27 containing the mitotic inhibitor, cytosine arabinofuranoside (Sigma) at 1 μM concentration. On DIV 8, one half of the culture medium was replaced with NB/2% B27.
(§1) To induce glutamate excitotoxicity in the cortical neuronal cultures (96-well plate format), 50 μl of conditioned media containing 200 μM glutamate was added to culture wells containing 50 μl conditioned media (100 μM final glutamate concentration). Cultures were incubated at 37° C. in a CO2 incubator for 5 minutes, after which time the media was replaced with 100 μl of 50% NB/2% N2 and 50% balance salt solution (NB/N2:BSS).
Untreated and glutamate-treated control samples received media additions with and without glutamate respectively.
(§2) Eighteen hours after glutamate exposure, neuronal cultures were examined by light microscopy for qualitative assessment of neuronal damage. Neuronal viability was quantitatively measured by 3-(4,5,dimethyliazol-2-yl)-5-(3-carboxymethoxy-phenyl)-2-(4-sulfophenyl)-2H-tetrazolium salt (MTS) assay (Promega, Australia). The MTS assay measures the mitochondrial conversion of the tetrazolium salt to a water-soluble brown formazan salt, which is detected spectrophotometrically at 495 nm. MTS absorbance data was converted to reflect proportional cell viability relative to both the untreated and glutamate treated controls. […] All assays were performed with quadruplicate sister neuronal cultures repeated a minimum of four times independently.

For data set [2] the test system is unchanged. The data set is described as follows: Light microscopy assessment of neuronal damage after glutamate exposure. In kind it is cell-based, rat. The note with it: for neuronal morphology (cellular rounding, survival) after glutamate exposure: light microscopy, one hour to 18 hours post glutamate exposure; for neurons that appeared intact and viable: Sprague-Dawley, rat, 18 hours. On the procedure:
Cortical neuronal cultures were established as described by Meloni et al., Neuroscience 108, 17-26, 2001. Briefly, cortical tissue from E18-E19 Sprague-Dawley rats was dissociated in Dulbelcco's Modified Eagle Medium (DMEM; Invitrogen, Australia) supplemented with 1.3 mM L-cysteine, 0.9 mM NaHCO3, 10 units/ml papain (Sigma, USA) and 50 units/ml DNase (Sigma) and washed in cold DMEM/10% (v/v) horse serum. Neurons were resuspended in Neurobasal (NB; Invitrogen) containing 2% B27 supplement (B27; Invitrogen). Before seeding, culture vessels comprising either a 96-well plastic plate or 24-well plastic plate with 13 mm glass coverslips (ProSciTech, Australia), were coated with poly-D-lysine (50 μg/mL; 70-150K; Sigma) and incubated overnight at room temperature. The poly-D-lysine was removed and replaced with NB (containing 2% B27; 4% fetal bovine serum; 1% horse serum; 62.5 μM glutamate; 25 μM 2-mercaptoethanol; and 30 μg/mL streptomycin and 30 μg/mL penicillin). Neurons were plated to obtain approximately 10,000 viable neurons for each well of a 96-well plate, or 200,000 viable neurons per well of a 24-well plate, on day in vitro (DIV) […]. Neuronal cultures were maintained in a CO2 incubator (5% CO2, 95% air balance, 98% humidity) at 37° C. On DIV 4, one third of the culture medium was removed and replaced with fresh NB/2% B27 containing the mitotic inhibitor, cytosine arabinofuranoside (Sigma) at 1 μM concentration. On DIV 8, one half of the culture medium was replaced with NB/2% B27. Cultures were used on DIV 11 or 12, and consisted of >95% neurons.
as §1, §2

[3] abbreviates: 1 μM extracellular concentration.
Where [4] appears, read: Sprague-Dawley, rat, 18 h, 5 μM.
Where [5] appears, read: 2 μM extracellular concentration.
Where [6] appears, read: 5 μM extracellular peptide, 100 μM glutamate 5 min, MTS 18 h, no insult = 100%.

Turning to `CC[C@@H](C)[C@@H](NC(=O)[C@H](N)Cc1ccc(O)cc1)C(=O)N[C@H](Cc1ccc(O)cc1)C(=O)N1CCC[C@@H]1C(=O)N[C@H](Cc1ccc(O)cc1)C(=O)N[C@H](C)C(=O)N[C@H](Cc1ccc(O)cc1)C(=O)N[C@H](CO)C(=O)N[C@H](CCC(N)=O)C(=O)N[C@H](CC(N)=O)C(=O)N[C@@H](C(=O)N[C@H](CC(C)C)C(=O)NCC(=O)N[C@H](CCCNC(=N)N)C(=O)N[C@H](CCCNC(=N)N)C(=O)N[C@H](CCCNC(=N)N)C(=O)N[C@H](CCC(N)=O)C(=O)N[C@H](CCCNC(=N)N)C(=O)N[C@H](CCCNC(=N)N)C(=O)N[C@H](CCCCN)C(=O)N[C@H](CCCCN)C(=O)N[C@H](CCCNC(=N)N)C(=O)NCC(=O)O)[C@H](C)CC` [PYC19D-TAT], in data set [1], the “neuroprotection compared with JNKI-1D-TAT” value is “greater neuroprotection than JNKI-1D-TAT”. Moreover, the “neuroprotection following glutamate excitotoxicity” value in data set [1] (setting [3]) is reported as “significant neuroprotection”. The “neuronal viability following glutamate excitotoxicity” value in data set [1] (setting [4]) was found to be 68%. For the same molecule, in data set [1] (concentrations higher than 1 μM), the “neuroprotection of D-isoform compared with L-isoform” value was “clearly provides enhanced neuroprotection”.

Take GRKKRRQRRRGVSINQEHHRLLPL [PYC41L-TAT]: the “neuroprotection following glutamate excitotoxicity” value is recorded as “neuroprotective trend” in data set [1] (setting [3]) and “initial significant neuroprotection” in data set [1] (setting [5]). In data set [1] (setting [6]), the “neuronal viability following glutamate excitotoxicity” value was 38%. The “neuronal morphology (cellular rounding, survival) after glutamate exposure” value (shortened to “neuronal morphology”) in data set [2] is “did not begin to round and survived glutamate excitotoxicity”.

Consider “GRKKRRQRRRGGLQGRRQPGQQPQGRWSGRALPAHR [PYC38/39L-TAT]”, for which the “neuroprotection following glutamate excitotoxicity” value is “neuroprotective trend” in data set [1] (setting [3]) and “initial significant neuroprotection” in data set [1] (setting [5]). Also, in data set [1] (setting [6]), the “neuronal viability following glutamate excitotoxicity” value is 69%. Moreover, the “neuronal morphology” value in data set [2] was “did not begin to round and survived glutamate excitotoxicity”.

Consider GRKKRRQRRRGGLQGRRRQGYQSIKP [PYC36L-TAT], for which the “neuroprotection compared with JNKI-1D-TAT” value in data set [1] is listed as “greater neuroprotection than JNKI-1D-TAT”. Besides, the “neuroprotection following glutamate excitotoxicity” value in data set [1] (setting [3]) is recorded as “significant level of neuroprotection”. Besides, the “neuronal viability following glutamate excitotoxicity” value is listed as 30% in data set [1] (1 μM extracellular peptide, MTS 18 h) and 64% in data set [1] (setting [6]). Moreover, in data set [2], the “neuronal morphology” value was “did not begin to round and survived glutamate excitotoxicity”.

Take `CC(C)C[C@@H](NC(=O)[C@H]1CCCN1C(=O)[C@@H](C)NC(=O)[C@@H](Cc1c[nH]cn1)NC(=O)[C@H](N)CCCNC(=N)N)C(=O)N[C@H](C)C(=O)N[C@H](CCCNC(=N)N)C(=O)NCC(=O)N[C@H](CO)C(=O)N[C@H](Cc1c[nH]c2ccccc12)C(=O)N[C@H](CCCNC(=N)N)C(=O)NCC(=O)N[C@H](CCC(N)=O)C(=O)N1CCC[C@@H]1C(=O)N[C@H](CCC(N)=O)C(=O)N[C@H](CCC(N)=O)C(=O)NCC(=O)N1CCC[C@@H]1C(=O)N[C@H](CCC(N)=O)C(=O)N[C@H](CCCNC(=N)N)C(=O)N[C@H](CCCNC(=N)N)C(=O)NCC(=O)N[C@H](CCC(N)=O)C(=O)N[C@H](CC(C)C)C(=O)NCC(=O)NCC(=O)N[C@H](CCCNC(=N)N)C(=O)N[C@H](CCCNC(=N)N)C(=O)N[C@H](CCCNC(=N)N)C(=O)N[C@H](CCC(N)=O)C(=O)N[C@H](CCCNC(=N)N)C(=O)N[C@H](CCCNC(=N)N)C(=O)N[C@H](CCCCN)C(=O)N[C@H](CCCCN)C(=O)N[C@H](CCCNC(=N)N)C(=O)NCC(=O)O` [PYC38/39D-TAT] (H-[dR][dH][dA][dP][dL][dA][dR]G[dS][dW][dR]G[dQ][dP][dQ][dQ]G[dP][dQ][dR][dR]G[dQ][dL]GG[dR][dR][dR][dQ][dR][dR][dK][dK][dR]G-OH; N-terminus and C-terminus assumed): the “neuroprotection compared with JNKI-1D-TAT” value in data set [1] was “greater neuroprotection than JNKI-1D-TAT”. In addition, in data set [1] (setting [5]), the “neuroprotection following glutamate excitotoxicity” value was “initial significant neuroprotection”. Further, the “neuronal viability following glutamate excitotoxicity” value in data set [1] (setting [4]) amounted to 83%.

In the case of “GRKKRRQRRRGAYQSIRSGGIESSSKRER [PYC35L-TAT]”, in data set [1] (setting [5]), the “neuroprotection following glutamate excitotoxicity” value was “neuroprotective trend”. Also, the “neuronal viability following glutamate excitotoxicity” value in data set [1] (setting [6]) was 42%. The “extracellular concentration providing significant neuroprotection” value in data set [1] (glutamate excitotoxicity, dose response 0.1-10 μM) is at least 2 µM. Also, the “neuronal morphology” value in data set [2] is “did not begin to round and survived glutamate excitotoxicity”.

As to `CC[C@@H](C)[C@@H](NC(=O)[C@@H](CC(N)=O)NC(=O)[C@@H](CCC(N)=O)NC(=O)[C@@H](CCC(=O)O)NC(=O)[C@@H](Cc1c[nH]cn1)NC(=O)[C@@H](Cc1c[nH]cn1)NC(=O)[C@@H](CCCNC(=N)N)NC(=O)[C@@H](CC(C)C)NC(=O)[C@@H](CC(C)C)NC(=O)[C@H]1CCCN1C(=O)[C@H](N)CC(C)C)C(=O)N[C@H](CO)C(=O)N[C@@H](C(=O)NCC(=O)N[C@H](CCCNC(=N)N)C(=O)N[C@H](CCCNC(=N)N)C(=O)N[C@H](CCCNC(=N)N)C(=O)N[C@H](CCC(N)=O)C(=O)N[C@H](CCCNC(=N)N)C(=O)N[C@H](CCCNC(=N)N)C(=O)N[C@H](CCCCN)C(=O)N[C@H](CCCCN)C(=O)N[C@H](CCCNC(=N)N)C(=O)NCC(=O)O)C(C)C` [PYC41D-TAT], the “neuroprotection following glutamate excitotoxicity” value in data set [1] (setting [5]) is given as “initial significant neuroprotection”. For the same molecule, in data set [1] (setting [4]), the “neuronal viability following glutamate excitotoxicity” value was 40%.

Consider `CC[C@@H](C)[C@@H](NC(=O)[C@@H](CCCCN)NC(=O)[C@H]1CCCN1)C(=O)N[C@H](CO)C(=O)N[C@H](CCC(N)=O)C(=O)N[C@H](Cc1ccc(O)cc1)C(=O)NCC(=O)N[C@H](CCC(N)=O)C(=O)N[C@H](CCCNC(=N)N)C(=O)N[C@H](CCCNC(=N)N)C(=O)N[C@H](CCCNC(=N)N)C(=O)NCC(=O)N[C@H](CCC(N)=O)C(=O)N[C@H](CC(C)C)C(=O)NCC(=O)O` [PYC36D, Pro Lys Ile Ser Gln Tyr Gly Gln Arg Arg Arg Gly Gln Leu Gly] (H-[dP][dK][dI][dS][dQ][dY]G[dQ][dR][dR][dR]G[dQ][dL]G-OH; N-terminus and C-terminus assumed), for which, in data set [2], the “neurons that appeared intact and viable” value was 2-5%; the “neuronal morphology” value is reported as “displayed cellular rounding”.

Turning to `CC[C@@H](C)[C@@H](NC(=O)[C@@H](CCC(=O)O)NC(=O)[C@@H](CO)NC(=O)[C@@H](CO)NC(=O)[C@@H](CO)NC(=O)[C@@H](CCCCN)NC(=O)[C@@H](CCCNC(=N)N)NC(=O)[C@@H](CCC(=O)O)NC(=O)[C@H](N)CCCNC(=N)N)C(=O)NCC(=O)NCC(=O)N[C@H](CO)C(=O)N[C@H](CCCNC(=N)N)C(=O)N[C@@H](C(=O)N[C@H](CO)C(=O)N[C@H](CCC(N)=O)C(=O)N[C@H](Cc1ccc(O)cc1)C(=O)N[C@H](C)C(=O)NCC(=O)O)[C@H](C)CC` [PYC35D, Arg Glu Arg Lys Ser Ser Ser Glu Ile Gly Gly Ser Arg Ile Ser Gln Tyr Ala Gly] (H-[dR][dE][dR][dK][dS][dS][dS][dE][dI]GG[dS][dR][dI][dS][dQ][dY][dA]G-OH; N-terminus and C-terminus assumed), in data set [2], the “neurons that appeared intact and viable” value is recorded as 2-5%; the “neuronal morphology” value is “displayed cellular rounding”.
